Key:
[1] = tested on: NOTCH positive/driven human T cell acute lymphoblastic leukemia cell line RPMI 8402; assay: Alamar blue anti-proliferative assay; format: cell-based; conditions: Homo sapiens, RPMI 8402, RPMI8402, 72 hours, concentration range 0.01-10 μM
Protocol: Alamarblue® and PrestoBlue proliferation assays were performed to determine the growth kinetics of Notch inhibitor treated cells. Alamar Blue® and PrestoBlue consists of a cell permeable substrate resazurin. In metabolically active and proliferating cells, resazurin is converted to resorufin due to an intrinsic reducing power of live cells and produces a red fluorescence. Therefore production of resorufin serves as an indicator of the viability of the cell population.
Proliferation assays were performed by seeding 5000 cells/well in a 96 well plate. Cells were treated with DMSO or compounds for 72 hours using concentration ranges of 0.01-10 μM. Each concentration was tested in 4 replicates. To determine the growth kinetics, 10 μl of Alamar Blue® or PrestoBlue (Invitrogen) was added to each well and incubated for 4 hours. Readout was taken using Tecan F500 (Tecan) multiplate reader or Varioskan LUX (ThermoFisher) multiplate reader.
In order to determine anti-cancer potency of compounds compared to 6-(4-tert-butylphenoxy)pyridin-3-amine (described in WO2013/093885), NOTCH positive/driven human T cell acute lymphoblastic leukemia cell line RPMI 8402 was treated with selected compounds.

cMYC = assay: Western blot of RPMI8402 protein lysates: cMYC; format: cell-based, human; conditions: NOTCH positive leukemic cells, 1 μM, 24 hours, FIGS. 2 and 3
Protocol: (§1) One million human NOTCH positive T-ALL cell line RPMI8402 were treated with NOTCH targeting compounds at 1 μM concentration for 24 hours. Following treatment cells were harvested and washed with 1×PBS. Total RNA and total protein lysates were extracted as described below.
(§2) Cells were lysed in RIPA buffer (50 mM Tris·Cl, pH 7.5, 150 mM NaCl, 1% nonidet P-40, 0.5% sodium deoxycholate and 0.1% SDS) for 30 minutes at 4° C. Lysed cells were centrifuged to remove the debris at 14000 rpm at 4° C. Supernatant was transferred to a new eppendorf tube. The protein concentration was determined by Bradford assay using spectrophotometer (Ultrospec 3000 pro).
(§3) Initially for western blotting, 40 μg of protein were denatured in 1×SDS gel loading buffer (100 mM Tris·Cl, pH 6.8, 200 mM DTT, 4% SDS, 0.2% bromophenol, 20% glycerol) by heating at 99° C. for 5 minutes. Denatured protein samples were stored on ice until loading on to the acrylamide gel. The samples were run on 8% or 10% acrylamide gel in Tris-glycine electrophoresis buffer (25 mM Tris, 250 mM glycine, 0.1% SDS). Following separation on the acrylamide gel, protein samples were transferred on to PVDF membrane (PEQ lab, catalog number 39-3010) using transfer buffer (39 mM glycine, 48 mM Tris base, 0.037% SDS and 20% methanol).
(§4) For immunoblotting, membranes were blocked with 5% milk and incubated overnight with primary antibodies at 4° C. Membrane were washed with 1×TBST (1×TBS+0.5 tween 20) for 5 minutes (3 times) and incubated with HRP-conjugated secondary antibodies for one hour at room temperature. Signal was detected with Super Signal West chemiluminescent substrate (Thermo Scientific, catalog number 34077).
(§5) Total protein lysates were analysed by western blot analysis using N1-ICD (cleaved and active NOTCH1 Intracellular Domain), cMYC and ACTIN specific antibodies.

[2] = tested on: N1-ICD (cleaved and active NOTCH1 Intracellular Domain); assay: Western blot of RPMI8402 protein lysates: N1-ICD; format: cell-based, human; conditions: NOTCH positive leukemic cells, 1 μM, 24 hours, FIGS. 2 and 3
Protocol: as §1, §2, §3, §4, §5

NOTCH pathway = assay: Western blot, downregulation of NOTCH pathway (N1-ICD and cMYC), FIG. 2 and 3; format: cell-based, human; conditions: RPMI8402, 1 μM, 24 hours
Protocol: NOTCH positive human leukemic RPMI8402 cells were treated with 1 μM of 6-(4-tert-butylphenoxy)pyridin-3-amine and 6-([1,1′-Biphenyl]-4-yloxy)-N-methylpyridin-3-amine for 24 hours. Following treatment, total protein lysates were extracted and protein expression analysed by western blot.
NOTCH positive human leukemic RPMI8402 cells were treated with 1 μM of 6-(4-tert-butylphenoxy)pyridin-3-amine and 6-((4′-Fluoro-[1,1′-biphenyl]-4-yl)oxy)pyridin-3-amine, 6-([1,1′-Biphenyl]-4-yloxy)-4-methylpyridin-3-amine, 6-([1,1′-Biphenyl]-4-yloxy)-2-methylpyridin-3-amine and N-Methyl-6-((6-phenylpyridin-3-yl)oxy)pyridin-3-amine for 24 hours. Following treatment, total protein lysates were extracted and protein expression analysed by western blot.
as §1, §2, §3, §4

Q: With `CNc1ccc(Oc2ccc(-c3ccccc3)nc2)nc1` [Example 23, N-Methyl-6-((6-phenylpyridin-3-yl)oxy)pyridin-3-amine] as the compound, how does the IC50 [1] read?
A: The IC50 was 500 nM.

Q: What about the “downregulation of cMYC compared to 6-(4-tert-butylphenoxy)pyridin-3-amine” value (cMYC) of the same compound?
A: Its value is “stronger downregulation”.

Q: And the “downregulation of N1-ICD compared to 6-(4-tert-butylphenoxy)pyridin-3-amine” value [2]?
A: Its value is “stronger downregulation”.

Q: And the “potency in downregulating NOTCH pathway compared with 6-(4-tert-butylphenoxy)pyridin-3-amine” value (NOTCH pathway)?
A: Its value is “enhanced potency”.

Q: With `CNc1ccc(Oc2ccc(-c3ccccc3)cc2)nc1` [Example 2, 6-([1,1′-Biphenyl]-4-yloxy)-N-methylpyridin-3-amine] as the compound, how does the IC50 [1] read?
A: Its IC50 is 110 nM.

Q: What about the “downregulation of cMYC compared to 6-(4-tert-butylphenoxy)pyridin-3-amine” value (cMYC) of the same compound?
A: Its value is “stronger downregulation”.

Q: What about the “downregulation of N1-ICD compared to 6-(4-tert-butylphenoxy)pyridin-3-amine” value [2] of the same compound?
A: Its value is “stronger downregulation”.

Q: And the “potency in downregulating NOTCH pathway compared with 6-(4-tert-butylphenoxy)pyridin-3-amine” value (NOTCH pathway)?
A: Its value is “enhanced potency”.

Q: `Cc1nc(Oc2ccc(-c3ccccc3)cc2)ccc1N` [Example 8, 6-([1,1′-Biphenyl]-4-yloxy)-2-methylpyridin-3-amine] was tested. Which IC50 [1] did it give?
A: The IC50 was 110 nM.

Q: What about the “downregulation of cMYC compared to 6-(4-tert-butylphenoxy)pyridin-3-amine” value (cMYC) of the same compound?
A: The value was “stronger downregulation”.

Q: What about the “downregulation of N1-ICD compared to 6-(4-tert-butylphenoxy)pyridin-3-amine” value [2] of the same compound?
A: Its value is “stronger downregulation”.

Q: What about the “potency in downregulating NOTCH pathway compared with 6-(4-tert-butylphenoxy)pyridin-3-amine” value (NOTCH pathway) of the same compound?
A: The value was “enhanced potency”.

Q: Which IC50 [1] does the source give for `Nc1ccc(Oc2ccc(-c3ccc(F)cc3)cc2)nc1` [Example 10, 6-((4′-Fluoro-[1,1′-biphenyl]-4-yl)oxy)pyridin-3-amine] here?
A: Its IC50 is 83 nM.

Q: And the “downregulation of cMYC compared to 6-(4-tert-butylphenoxy)pyridin-3-amine” value (cMYC)?
A: The value was “stronger downregulation”.

Q: And the “downregulation of N1-ICD compared to 6-(4-tert-butylphenoxy)pyridin-3-amine” value [2]?
A: The value was “stronger downregulation”.

Q: What about the “potency in downregulating NOTCH pathway compared with 6-(4-tert-butylphenoxy)pyridin-3-amine” value (NOTCH pathway) of the same compound?
A: The value was “enhanced potency”.

Q: Which IC50 [1] does the source give for `Cc1cc(Oc2ccc(-c3ccccc3)cc2)ncc1N` [Example 9, 6-([1,1′-Biphenyl]-4-yloxy)-4-methylpyridin-3-amine] here?
A: The IC50 was 110 nM.

Q: And the “downregulation of cMYC compared to 6-(4-tert-butylphenoxy)pyridin-3-amine” value (cMYC)?
A: The value was “stronger downregulation”.

Q: What about the “downregulation of N1-ICD compared to 6-(4-tert-butylphenoxy)pyridin-3-amine” value [2] of the same compound?
A: Its value is “stronger downregulation”.

Q: What about the “potency in downregulating NOTCH pathway compared with 6-(4-tert-butylphenoxy)pyridin-3-amine” value (NOTCH pathway) of the same compound?
A: Its value is “enhanced potency”.

From patent US12655141B2, “Inhibitors of notch signaling pathway and use thereof in treatment of cancers” (Cellestia Biotech AG, priority 2019, dated 2026)
